Experiments:
[1] = test system: Weizen; assay: Post-emergence test (crop selectivity); format: in vivo; settings: post-emergence spray, 2000 l Wasser/ha, rated after three weeks
Excerpt: (§1) Lösungsmittel: 5 Gewichtsteile Aceton Emulgator: 1 Gewichtsteil Alkylarylpolyglykolether
(§2) Zur Herstellung einer zweckmäßigen Wirkstoffzubereitung vermischt man 1 Gewichtsteil Wirkstoff mit der angegebenen Menge Lösungsmittel, gibt die angegebene Menge Emulgator zu und verdünnt das Konzentrat mit Wasser auf die gewünschte Konzentration. Mit der Wirkstoffzubereitung spritzt man Testpflanzen, welche eine Höhe von 5 - 15 cm haben so, daß die jeweils gewünschten Wirkstoffmengen pro Flächeneinheit ausgebracht werden. Die Konzentration der Spritzbrühe wird so gewählt, daß in 2000 l Wasser/ha die jeweils gewünschten Wirkstoffmengen ausgebracht werden. Nach drei Wochen wird der Schädigungsgrad der Pflanzen bonitiert in % Schädigung im Vergleich zur Entwicklung der unbehandelten Kontrolle.

[2] = test system: Unkräuter, wie z. B. Datura, Galium, Polygonum, Portulak, Sinapis und Solanum; assay: Post-emergence test (herbicidal action on weeds); format: in vivo; settings: post-emergence spray on test plants 5 - 15 cm high, 2000 l Wasser/ha, rated after three weeks as % Schädigung vs untreated control; result stated in comparison with Vergleichssubstanz (A)
Excerpt: as §1, §2

## FC(F)(F)c1ccc(Oc2ccc(Cl)c(CBr)c2)c(Cl)c1 [Beispiel 1, 2-Chlor-5-(2-Chlor-4-trifluormethyl-phenoxy)-benzylbromid]
[1]
  Selektivität in Weizen: guter Selektivität
[2]
  Wirkung gegen Unkräuter: erheblich stärkere Wirkung

## CCOC(=O)C(C)(O)Cc1cc(Oc2c(Cl)cc(C(F)(F)F)cc2Cl)ccc1Cl (stereo not shown) [Beispiel 6, 1-Hydroxy-1-methyl-2-(2-chlor-5-(2,6-dichlor-4-trifluormethyl-phenoxy)-phenyl)-propionsäure-ethylester]
[1]
  Selektivität in Weizen: guter Selektivität
[2]
  Wirkung gegen Unkräuter: erheblich stärkere Wirkung

Reference: patent EP0338306A2, “Halogen-substituted phenoxybenzyl compounds” (BAYER AG, priority 1988, dated 1989)
